Experimental data: patent publication US7375124B2, “Use of α-phenylthiocarboxylic and α-phenyloxycarboxylic acids with serum-glucose-lowering and serum-lipid-lowering activity” (Sigma-Tau Industrie Farmaceutiche Riunite S.p.A., priority 2002, dated 2008)
Each block holds one compound with its values, some of them ahead of it.

How the values were obtained:
mPPARαLBD/Gal4DBD = target: T1, mPPARαLBD/Gal4DBD (Mus musculus, UniProt P23204); assay: Transactivation assay mediated by mPPARαLBD/Gal4DBD in COS-7 cells (CAT reporter); format: cell-based
T1 construct: expressed in transfected cells; host or cells: COS-7 (monkey kidney fibroblasts)
T1 sequence (P23204 239-466 limits assumed): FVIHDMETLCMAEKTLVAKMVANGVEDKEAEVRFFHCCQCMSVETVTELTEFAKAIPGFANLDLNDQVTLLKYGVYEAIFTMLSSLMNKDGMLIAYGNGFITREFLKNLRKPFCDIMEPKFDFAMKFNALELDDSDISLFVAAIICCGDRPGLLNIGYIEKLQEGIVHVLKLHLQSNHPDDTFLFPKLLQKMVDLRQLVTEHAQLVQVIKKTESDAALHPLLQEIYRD
From the text: In this model a transactivation assay is used in which the expression vector mPPARαLBD/Gal4 DBD allows the synthesis by the transfected cell of a chimeric protein, in which the ligand binding domain (LBD) of PPARα is fused with the DNA binding domain (DBD) of the transcription factor GAL4 of yeast [Luckow B. et al., Nucleic Acids Res. 15, 5490 (1987)]. Simultaneously, a plasmid (pG5CAT) is transfected which contains 5 copies of the high-affinity binding site for GAL4 (also called UAS, upstream activating sequence), upstream of the viral promoter E1b fused with the CAT reporter gene [Moya-Camarena S. Y. et al., J. Lipid Res. 40 (8), 1426-33 (1999)]. This model eliminates interference by possible endogenous receptors.
This is due to the fact that the activation of E1b and the production of CAT will occur exclusively thanks to the interaction of GAL4 DBD with its own response element (UAS). Since the transcription factor GAL4 is not expressed in […] cells, transactivation of the reporter gene can take place only when, as a result of the interaction of a ligand with the LBD of PPARα, the chimeric protein PPARα/GAL4 recognises the UAS sequence on the plasmid pG5CAT. Together with the expression vector and the reporter vector the cells were also transfected with the plasmid pCH110 which provides the internal control for the efficiency of transfection and the normalisation of the results.
A monkey kidney fibroblast cell line (COS-7) was used [Elbrecht A. et al., J. Biol. Chem. 274 (12), 7913-22 (1999)]. The cells were co-transfected with the reporter vector, the expression plasmid coding for the fusion protein Gal4 DBD/PPARαLBD and the control vector pCH110. The cells were exposed to increasing concentrations of the study compounds and CAT activity was evaluated. Untreated cells were used as controls.
(§1) Monkey kidney fibroblasts (COS-7) were cultured according to the usual cell culture techniques, at 37° C. in a 5% v/v carbon dioxide atmosphere using as the growth medium DMEM (Dulbecco's modified Eagle's medium) modified with 3.7 g/l of sodium bicarbonate, 4 mM L-glutamine, 4.5 g/l of glucose, 1 mM sodium pyruvate and 10% v/v of foetal bovine serum, in the presence of streptomycin 100 μg/ml and penicillin 100 U/ml final.
The cells were co-transfected using the transfection reagent FuGENE6 (Roche), consisting of a defined mixture of lipids capable of complexing the DNA and of transporting it into the cells. Twenty-four hours prior to transfection the cells were plated at a density of 1.2×10^5 cells/well in 12-well plates and maintained at 37° C. in a 5% v/v CO2 atmosphere. […] Briefly, the transfection mixture containing 0.8 μg of the expression vector, 1.6 μg of the reporter vector, 0.8 μg of the control vector and 9 μl of the FuGENE6 reagent per well was added directly to the cells in the presence of culture medium devoid of serum. After 5 hours, the transfection medium was replaced by 1 ml of culture medium complete with serum and antibiotics in the presence or absence of the molecules to be tested at 3 different concentrations (2, 20 and 100 μM). Wy-14,643 (2 μM), a known ligand of PPARα, was used as the positive reference compound.
After 48 hours' incubation at 37° C. in a 5% v/v CO2 atmosphere, the cells were washed twice with 1 ml of phosphate buffer (PBS) and removed mechanically from the wells in TEN buffer (Tris[hydroxymethyl]aminomethane 10 mM pH 8, ethylenediamine-tetraacetic acid 1 mM pH 8, sodium chloride 0.1 M). After centrifuging for 3 minutes at 1000 rpm, the cells were resuspended in 65 μl of lysis buffer (Tris-HCl 0.25 M, pH 8) and then lysed thanks to three rapid freeze-thaw cycles. The insoluble cellular materials (debris) were removed by centrifuging at 15,000 rpm for 15 minutes at 4° C., and the supernatant was recovered and used for the CAT and β-galactosidase activity assays. […]

PPARγ = target: T2, PPARγ (Mus musculus, UniProt P37238); assay: Transactivation assay mediated by PPARγ in NIH-3T3 cells (CAT reporter); format: cell-based
T2 construct: expressed in transfected cells; host or cells: NIH-3T3 (mouse embryonal fibroblasts)
T2 sequence (P37238 1-475 isoform P37238-2): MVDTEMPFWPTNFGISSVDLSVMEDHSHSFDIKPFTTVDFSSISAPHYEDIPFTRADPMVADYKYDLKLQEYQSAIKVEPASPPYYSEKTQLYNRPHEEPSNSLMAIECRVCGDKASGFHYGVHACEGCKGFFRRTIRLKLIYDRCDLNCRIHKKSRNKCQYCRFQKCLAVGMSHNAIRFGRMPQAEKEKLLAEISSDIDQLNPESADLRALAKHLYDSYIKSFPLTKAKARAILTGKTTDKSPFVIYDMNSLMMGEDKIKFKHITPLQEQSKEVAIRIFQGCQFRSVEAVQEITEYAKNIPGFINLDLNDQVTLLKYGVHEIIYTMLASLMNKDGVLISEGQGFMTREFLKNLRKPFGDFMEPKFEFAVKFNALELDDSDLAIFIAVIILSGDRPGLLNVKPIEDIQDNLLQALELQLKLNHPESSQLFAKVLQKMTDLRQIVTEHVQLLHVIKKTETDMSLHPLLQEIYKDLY
From the text: A transactivation assay specific for PPARγ thus requires the simultaneous presence of the following in the preselected cell line: • a) a sufficient amount of PPARγ; • b) a sufficient amount of the 9 cis-retinoic acid receptor (RXR); • c) a chimeric plasmid containing the reporter gene controlled by a PPRE, located upstream of a viral heterologous promoter. In our case the reporter gene is chloramphenicol-acetyl transferase (CAT).
In the transactivation assay used, the preselected cells are transfected with the expression vector pSG5 Stop-mPPARg1 which allows the synthesis of the PPARγ receptor by the transfected cell. Simultaneously, a plasmid reporter (pBLCAT2-PPRE) is transfected which contains a peroxisome proliferator response element (PPRE) isolated by the gene promoter for acyl-CoA oxidase, upstream of the heterologous promoter of viral thymidine kinase (TK) fused with the reporter gene CAT. Since the endogenous cell levels of the RXR receptor are sufficiently high, it is not necessary to transfect an expression vector specific for RXR as well. […] Therefore, any increase in CAT levels will be the result of increased gene transcription dependent upon the dimerisation of PPARγ with RXR and upon the heterodimer bond formed with the peroxisome proliferator response element. Together with the expression vector and the reporter vector the cells are also transfected with the plasmid pCH110 which provides the internal control for the efficiency of transfection and the normalisation of the results
A cell line of mouse embryonal fibroblasts (NIH-3T3) was used [Hogan J. C. et al., Biochem Biophys Res Commun. 287 (2), 484-92 (2001)]. The cells were transfected with the reporter plasmid, the expression plasmid coding for the PPARγ receptor and the control vector pCH110. The cells were exposed to increasing concentrations of the study compounds and CAT activity was evaluated. Untreated cells were used as controls.
as §1, with “Mouse embryonal” for “Monkey kidney”, “(NIH-3T3)” for “(COS-7)”, “calf” for “foetal bovine”
The cells were co-transfected using the transfection reagent FuGENE6 (Roche), already described in the previous example. Twenty-four hours prior to transfection the cells were plated at a density of 8.0×10^4 cells/well in 12-well plates and maintained at 37° C. in a 5% v/v CO2 atmosphere. The culture medium, devoid of serum, was replaced 2 hours before transfection, and then the cells were treated with the transfection reagent FuGENE6, as described in the previous example. After 5 hours, the transfection medium was replaced by 1 ml of culture medium complete with serum and antibiotics in the presence or absence of the molecules to be tested at 3 different concentrations (2, 20 and 100 μM). Rosiglitazone, a known ligand of PPARγ, was used as the positive reference compound.
The cell protein extracts were prepared and the CAT activity assay was conducted exactly as described in the previous example.
As an internal control for the normalisation of the CAT activity in relation to the transfection efficiency, β-galactosidase activity coded for by the corresponding gene in the co-transfected plasmid pCH110 was used.
β-galatosidase activity was measured exactly as described in the previous example.
For the normalisation of the CAT assay results in relation to […] activity the formula described in the previous example was used.

melting point: 103 to 104 °C
SMILES: CC(C)(Sc1ccc(OCCc2ccc3ccccc3c2)cc1)C(=O)O [Example 19, 2-[4-[2-(2-naphthyl)ethoxy]phenylthio]-2-methylpropanoic acid]

Activation of reporter gene CAT as a percentage of the reference compound (WY-14,643 2 μM = 100%) (mPPARαLBD/Gal4DBD; 2 μM): 85%
Activation of reporter gene CAT as a percentage of the reference compound (WY-14,643 2 μM = 100%) (mPPARαLBD/Gal4DBD; 20 μM): 96.4%
Activation of reporter gene CAT as a percentage of the reference compound (WY-14,643 2 μM = 100%) (mPPARαLBD/Gal4DBD; 100 μM): 151.9%
Activation of the gene-reporter CAT as a percentage of the reference compound (rosiglitazone 2 μM = 100%) (PPARγ; 2 μM): 25%
Activation of the gene-reporter CAT as a percentage of the reference compound (rosiglitazone 2 μM = 100%) (PPARγ; 20 μM): 67%
Activation of the gene-reporter CAT as a percentage of the reference compound (rosiglitazone 2 μM = 100%) (PPARγ; 100 μM): 82.2%
SMILES: CC(C)(Sc1cccc(OCCc2ccc3ccccc3c2)c1)C(=O)O [Example 18, 2-[3-[2-(2-naphthyl)ethoxy]phenylthio]-2-methylpropanoic acid]

Activation of reporter gene CAT as a percentage of the reference compound (WY-14,643 2 μM = 100%) (mPPARαLBD/Gal4DBD; 2 μM): 132.3%
Activation of reporter gene CAT as a percentage of the reference compound (WY-14,643 2 μM = 100%) (mPPARαLBD/Gal4DBD; 20 μM): 199.3%
Activation of reporter gene CAT as a percentage of the reference compound (WY-14,643 2 μM = 100%) (mPPARαLBD/Gal4DBD; 100 μM): 203.8%
Activation of the gene-reporter CAT as a percentage of the reference compound (rosiglitazone 2 μM = 100%) (PPARγ; 2 μM): 61.6%
Activation of the gene-reporter CAT as a percentage of the reference compound (rosiglitazone 2 μM = 100%) (PPARγ; 20 μM): 91.6%
Activation of the gene-reporter CAT as a percentage of the reference compound (rosiglitazone 2 μM = 100%) (PPARγ; 100 μM): 101%
SMILES: CC(C)(Sc1cccc(OCCc2ccc(Cl)cc2Cl)c1)C(=O)O [Example 13, 2-[3-(2-(2,4-dichlorophenyl)ethoxy)phenylthio]-2-methylpropanoic acid]

melting point: 72 to 74 °C
SMILES: COC(=O)C(C)(C)Sc1ccc(OCCn2c3ccccc3c3ccccc32)cc1 [Example 7, methyl 2-[4-(2-(carbazol-9-yl)ethoxy)phenylthio]isobutyrate]

melting point: 73 to 74 °C
SMILES: COC(=O)C(C)(C)Sc1ccc(OCCc2ccc(Cl)cc2Cl)cc1 [Example 5, methyl 2-[4-(2-(2,4-dichlorophenyl)ethoxy)phenylthio]isobutyrate]

melting point: 87 to 88 °C
SMILES: CC(C)(Sc1ccc(OCCc2ccc(Cl)cc2)cc1)C(=O)O [Example 12, 2-[4-[2-(4-chlorophenyl)ethoxy]phenylthio]-2-methylpropanoic acid]

melting point: 56 to 57 °C
SMILES: COC(=O)C(C)(C)Sc1ccc(OCCc2ccc3ccccc3c2)cc1 [Example 11, methyl 2-[4-[2-(2-naphthyl)ethoxy]phenylthio]isobutyrate]

melting point: 137 to 138 °C
SMILES: CC(C)(Sc1cccc(OCc2ccc(-c3ccc([N+](=O)[O-])cc3)o2)c1)C(=O)O [Example 25, 2-methyl-2-[3-[5-(4-nitrophenyl)furfuryloxy]phenylthio]propanoic acid]

melting point: 81 to 82 °C
SMILES: COC(=O)C(C)(C)Sc1cccc(OCc2ccc(-c3ccc([N+](=O)[O-])cc3)o2)c1 [Example 22, methyl 2-[3-[5-(4-nitrophenyl)furfuryloxy]phenylthio]isobutyrate]
